Measurements taken from US20200188319A1, “Use Of Inhaled Nitric Oxide For The Treatment Of Pulmonary Hypertension Associated With Lung Disease” (Bellerophon Pulse Technologies LLC, priority 2017, published 2020).
Values joined by “and” are separate entries in the source; they are usually repeats but may differ in a detail not shown here. Equal values may be shown once. Read-outs that look alike come from different tables or passages of the source.

Legend:
PH-COPD subjects [1] = experiment: Chronic iNO: six-minute walk distance (6MWD) in PH-COPD subjects; type: in vivo, human; settings: seven PH-COPD subjects, group value, iNO 30 mcg/kg/IBW, FIG. 10
Excerpt: Oxygen saturation can be measured before, during or after tests that assess exercise capacity. One approach to assess exercise capacity is the six-minute walk test, which provides the 6MWD. Other measurements that can be used to assess exercise capacity include, but are not limited to, shuttle walk test, activity level, forced exercise, maximal exercise test, treadmill, bicycle and cardiopulmonary exercise test.
(§1) This study is an open label Phase 1 study of iNO therapy in subjects with PH-COPD (PULSE-COPD-007; NCT03135860). The primary outcome of this study is the change in lobar blood volume at total lung capacity with iNO and the change in lobar blood volume with iNO after 4 weeks of treatment with iNO as measured by HRCT.
(§2) Subjects also had sPAP≥38 mm Hg as measured by echocardiogram, a post-bronchodilatory FEV1/FVC<0.7 and a FEV1<60% predicted. All subjects were at least 40 years old and were current or former smokers with at least 10 pack-years of tobacco cigarette smoking before study entry. All subjects also had been receiving LTOT for at least 3 months for at least 10 hours per day.
(§3) The PH-COPD subjects received pulsed iNO therapy for 4 weeks for at least 12 hours/day. The iNO was administered utilizing a 4,880 ppm NO cylinder concentration.
A further analysis was performed of seven PH-COPD subjects that completed 4 weeks of treatment with iNO at a dose of 30 mcg/kg IBW/hr. […]

PH-COPD subjects [2] = experiment: Chronic iNO: TAPSE in PH-COPD subjects; type: in vivo, human
Excerpt: (§4) One or more embodiments of the present invention also relate to maintaining and/or improving right ventricular (RV) function using long-term iNO therapy. Maintenance and/or improvements in RV function can be assessed by many echocardiographic measurements. One such quantitative approach to assess RV function is the measurement of the tricuspid annular plane systolic excursion (TAPSE). The TAPSE estimates RV systolic function by measuring the level of systolic excursion of the lateral tricuspid valve annulus towards the apex. An excellent correlation between the TAPSE and RV ejection fraction as assessed by radionuclide angiography has previously been established and the approach appears reproducible and proven to be a strong predictor of prognosis in heart failure. [Reference: Heart. 2006 April; 92(Suppl 1): i19-i26.]
as §1, §2, §3
These subjects were diagnosed with PH-COPD and received 4 weeks of treatment with iNO at a dose of 30 mcg/kg IBW/hr. The results verify the increase in TAPSE which correlates to RV function.

[3] = system: pulmonary arterial hypertension (PAH); settings: cited from earlier work
PH-IPF subjects [4] = experiment: Acute iNO: blood vessel volume by HRCT in PH-IPF subjects on LTOT; type: in vivo, human
Excerpt: This study was an exploratory, three-part, clinical study to assess the effect of pulsed iNO on functional pulmonary imaging parameters in subjects with PH-COPD on LTOT (Part 1) PH-IPF on LTOT (Part 2 and Part 3) (IK-7002-COPD-006; NCT02267655). The objective of this exploratory study was to examine the utility of high resolution computed tomography (HRCT) to measure changes in functional respiratory imaging parameters as a function of short term iNO administration using a pulsed NO delivery device in subjects with PH-IPF (Part 2 and Part 3) on LTOT. The primary endpoint in this exploratory study is the change from baseline in lobar blood volume at total lung capacity (TLC) after dosing with pulsed iNO (Part 1), iNO or Placebo (Part 2a) and after 4 weeks iNO treatment (Part 3b) as measured by HRCT.
This was an exploratory clinical study to evaluated the utility of HRCT to measure the pharmacodynamic effects of short term pulsed administration of iNO using a pulsed NO delivery device in subjects with PH-IPF (Part 2 and Part 3) on LTOT.
(§5) The 2 subjects enrolled in Part 2 were randomly assigned for Part 2a to 1 of 2 sequences to receive iNO utilizing the NO cylinder concentration (4,880 ppm) at a dose of 75 mcg/kg IBW/hr or placebo set at a dose of 75 mcg/kg IBW/hr.
(§6) The 2 subjects enrolled in Part 3a each received three different doses of iNO utilizing NO cylinder concentration (4,880 ppm) at a dose of 5 mcg/kg IBW/hr, 10 mcg/kg IBW/hr and 30 mcg/kg IBW/hr, all with LTOT. For each dose, the change in PAP pressure and the change in cardiac output was evaluated by RHC. The investigator could decide after each dose to continue with the following dose or not.
(§7) […], the vasodilation and the hemodynamics were assessed. During the chronic phase, the focus was exercise capacity. Oxygen saturation during exercise was evaluated both at baseline as well as after 4 weeks of chronic treatment with iNO. Both the acute and chronic phases evaluated iNO doses of 30 and 75 mcg/kg IBW/hr.

PH-IPF subjects [5] = experiment: Chronic iNO: TAPSE (RV function) in PH-IPF subjects; type: in vivo, human
Excerpt: as §4
(§8) One patient from Part 2a entered into Part 2b. During Part 2b patient receive iNO utilizing NO cylinder concentration (4,880 ppm) at a dose of 75 mcg/kg IBW/hr during 4 weeks for at least 12 hours/day.
(§9) The 2 patients from Part 3a entered Part 3b. During Part 3b, patients received iNO utilizing NO cylinder concentration (4,880 ppm) at a dose of 30 mcg/kg IBW/hr.
Subject 1 received pulsed iNO at a dose of 75 mcg/kg IBW/hr for 4 weeks, and Subject 3 received pulsed iNO at a dose of 30 mcg/kg IBW/hr for 4 weeks.

PH-COPD subjects [6] = experiment: Acute iNO: blood vessel volume by HRCT in PH-COPD subjects; type: in vivo, human; settings: acute assessment
Excerpt: as §1, §2
(§10) A further analysis was performed of seven PH-COPD subjects that completed 4 weeks of treatment with iNO at a dose of 30 mcg/kg IBW/hr. The 6MWD and sPAP results are also presented in FIGS. 10 and 11, respectively.

PH-COPD subjects [7] = experiment: Chronic iNO: sPAP by echocardiogram in PH-COPD subjects; type: in vivo, human; settings: group value, FIG. 11
Excerpt: as §1, §2, §3, §10
As shown in FIG. 10, the change in 6MWD after 2 weeks of iNO therapy is +53.9 meters (p=0.02). Similarly, the change in 6MWD after 4 weeks of iNO therapy is +50.7 meters (p=0.04). In the literature, 27-54 meter improvements in 6MWD are considered clinically significant as measured by patient perceptions of improvement.

PH-IPF subjects [8] = experiment: Acute iNO: sPAP in PH-IPF subjects; type: in vivo, human
Excerpt: In Part 2 of the study the subjects needed to have severe PH, therefore PH in Part 2 was defined as sPAP≥50 mm Hg by 2-D echocardiogram. In Part 3 PH was defined as sPAP≥35 mm Hg by echocardiogram (Part 3).
as §5, §6, §7

PH-IPF subjects [9] = experiment: Safety of iNO dose in PH-IPF subjects (PAP, RHC-monitored titration); type: in vivo, human
Procedure: The safety endpoints in this study were: • 1. Incidence and severity of treatment emergent adverse events (AEs), including those related to device deficiency; • 2. Incidence of MetHb levels >7.0%; • 3. New symptoms that may be due to rebound PH associated with a temporal acute withdrawal of investigational study drug (i.e., symptoms occurring within 20 minutes of acute withdrawal and including those associated with investigational medical device malfunction or failure): systemic arterial oxygen desaturation, hypoxemia, bradycardia, tachycardia, systemic hypotension, near-syncope, syncope, ventricular fibrillation, and/or cardiac arrest; • 4. New or worsening symptoms of left heart failure or pulmonary edema; and • 5. Any decrease in systemic oxygenation measured by oxygen saturation of arterial blood by pulse oximetry (SpO2), i.e., hypoxia or oxygen saturation decrease, deemed by the Investigator to be clinically significant.
The initial protocol intended that 4 subjects would be enrolled in Part 2. […] It was decided to temporarily stop recruitment. One of the 2 subjects completed 4 weeks of chronic use in Part 2b.
In the amendment a total of 2 subjects participated in Part 3. The dose in Part 3 was lower than in Part 2 and each subject was titrated to the optimum dose as determined by the investigator. […] The dose was monitored with a RHC in place. […]

PH-IPF subjects [10] = experiment: Chronic iNO: SpO2 during 6MWT in PH-IPF subjects; type: in vivo, human; settings: during exercise (6MWT)
Excerpt: The secondary endpoints of Part 2b (chronic dosing) were change in 6MWT with Borg CR10 leg fatigue and dyspnea scale and SpO2, at the beginning and end of the 6MWT and symptoms evaluated using a questionnaire with after 4 weeks use of iNO at a dose of 75 mcg/kg IBW/hr and 2 weeks post discontinuation of iNO.
The secondary endpoints of Part 3b (chronic dosing) were change in 6MWT with Borg CR10 leg fatigue and dyspnea scale and SpO2, at the beginning and end of the 6MWT and symptoms evaluated using a questionnaire after 4 weeks use of iNO at a dose of 30 mcg/kg IBW/hr.
In Part 2b and Part 3b change in 6MWT with Borg CR10 leg fatigue and dyspnea scale and SpO2, at the beginning and end of the 6MWT, and a symptoms questionnaire were used to assess the effects of long term pulsed iNO administered using a pulsed NO delivery device in subjects with PH associated with IPF on LTOT.
as §8, §9, §7

[11] = Average of four PH-COPD subjects, iNO 30 mcg/kg IBW/hr for 4 weeks
[12] = iNO 30 mcg/kg IBW/hr, PH-IPF Patients 3 and 4
[13] = Average of PH-IPF Subjects 1 (75) and 3 (30 mcg/kg IBW/hr), 4 weeks
[14] = PH-IPF Subject 1, pulsed iNO 75 mcg/kg IBW/hr for 4 weeks
[15] = PH-IPF Subject 3, pulsed iNO 30 mcg/kg IBW/hr for 4 weeks

SMILES: [N]=O [iNO, nitric oxide]
- change in 6MWD after 2 weeks of iNO therapy (PH-COPD subjects [1]; p=0.02): +53.9 meters
- change in 6MWD after 4 weeks of iNO therapy (PH-COPD subjects [1]; p=0.04): +50.7 meters
- TAPSE % Change, Average (PH-COPD subjects [2]; [11]): 25%
- TAPSE Increase, Average (PH-COPD subjects [2]; [11]): 4
- TAPSE 4 Week, Average (PH-COPD subjects [2]; Average of four PH-COPD subjects, iNO 30 mcg/kg IBW/hr for 4 weeks, baseline 16): 20
- TAPSE after iNO therapy was discontinued (PH-COPD subjects [2]; PH-COPD subjects, N=5, FIG. 12): 19.0
- TAPSE after chronic iNO therapy (PH-COPD subjects [2]; PH-COPD subjects, N=7, baseline 18.8 (N=6), FIG. 12): 21.3
- efficacy for the treatment of PAH ([3]; iNO dose 25 mcg/kg IBW/hr, same previous clinical study): inefficacious
- efficacy for the treatment of PAH ([3]; iNO dose 75 mcg/kg IBW/hr, previous clinical study): effective
- Acute change in blood vessel volume (%) (PH-IPF subjects [4]; [12]): 2.8 ± 3.0% and 10.1 ± 3.4%
- regional vasodilation in the lungs (targeting) (PH-IPF subjects [4]; iNO 30 mcg/kg IBW/hr, Patients 3 & 4, FIGS. 7 and 8): clear targeting of the drug
- overall vasodilation (PH-IPF subjects [4]; iNO 30 mcg/kg IBW/hr, range over Patients 3 & 4): 2.8-10.1%
- regional vasodilation in the lungs (targeting) (PH-IPF subjects [4]; iNO 75 mcg/kg IBW/hr, Patients 1 & 2, FIGS. 5 and 6): little to no targeted vasodilation
- overall vasodilation (PH-IPF subjects [4]; iNO 75 mcg/kg IBW/hr, range over Patients 1 & 2): 14.2-34.2%
- TAPSE % Change, Average (PH-IPF subjects [5]; [13]): 15%
- TAPSE Increase, Average (PH-IPF subjects [5]; [13]): 3
- TAPSE 4 Week, Average (PH-IPF subjects [5]; Average of PH-IPF Subjects 1 (75) and 3 (30 mcg/kg IBW/hr), 4 weeks, baseline 20): 23
- TAPSE % Change (PH-IPF subjects [5]; [14]): 21%
- TAPSE Increase (PH-IPF subjects [5]; [14]): 3
- TAPSE 4 Week (PH-IPF subjects [5]; PH-IPF Subject 1, pulsed iNO 75 mcg/kg IBW/hr for 4 weeks, baseline 14): 17
- TAPSE % Change (PH-IPF subjects [5]; [15]): 12%
- TAPSE Increase (PH-IPF subjects [5]; [15]): 4
- TAPSE 4 Week (PH-IPF subjects [5]; PH-IPF Subject 3, pulsed iNO 30 mcg/kg IBW/hr for 4 weeks, baseline 25): 28
- ventilation-vasodilation correlation (PH-COPD subjects [6]; PH-COPD subjects, p=0.03, FIG. 9): significant
- increase in blood vessel volume on iNO (average) (PH-COPD subjects [6]; nine PH-COPD subjects, statistically significant): 4.2%
- sPAP 4 weeks after iNO therapy was discontinued (PH-COPD subjects [7]; PH-COPD subjects): 58.0 mm Hg
- sPAP after 4 weeks of iNO therapy (PH-COPD subjects [7]; seven PH-COPD subjects, iNO 30 mcg/kg IBW/hr, baseline 60.3 mm Hg, p=0.02): 48.3 mm Hg
- Acute Change in sPAP (%) (PH-IPF subjects [8]; [12]): −14.3% and −23.3%
- Acute Change in sPAP (%) (PH-IPF subjects [8]; iNO 75 mcg/kg IBW/hr, PH-IPF Patients 1 and 2): −9.3% and −9.7%
- PAP after discontinuation of iNO (PH-IPF subjects [9]; iNO 75 mcg/kg IBW/hr, the two IPF patients of Part 2): sudden increase in PAP after discontinuation
- dose titration monitored with RHC (PH-IPF subjects [9]; iNO titrated to 30 mcg/kg IBW/hr, 2 subjects of Part 3): safely
- SpO2 Nadir (PH-IPF subjects [10]; 4 Weeks iNO 30 mcg/kg IBW/hr, Patient 3, baseline 83): 89
- SpO2 Average (PH-IPF subjects [10]; 4 Weeks iNO 30 mcg/kg IBW/hr, Patient 3, baseline 88.9): 95.7
- SpO2 Nadir (PH-IPF subjects [10]; 4 Weeks iNO 75 mcg/kg IBW/hr, Patient 1, baseline 76): 79
- SpO2 Average (PH-IPF subjects [10]; 4 Weeks iNO 75 mcg/kg IBW/hr, Patient 1, baseline 89.4): 86.6
